The source of these data is patent US20040038199A1, “Phenotyping assay and reagents therefor” (priority 2000, published 2004).

Each structure is given as a SMILES string. Like-named read-outs stand apart in the source and are kept apart here.

Format in all cases: cell-based, HIV-1
Test [1] concerns Virus 4.1, 4.2, 4.3 (recombinants by RVA). The test is described as follows: MTT-reduction cell viability drug susceptibility assay, viruses 4.1-4.3 (Table 3B). To be noted: for EC50: Human immunodeficiency virus 1, Table 3B; for fold resistance: Table 3B, relative to WT. The protocol: (§1) As previously discussed, recombinant virus produced by the method of the present invention may be used in drug sensitivity assays. A suitable drug sensitivity assay is described in Pauwels et al. (1988) and is an MTT-reduction colorimetric cell viability assay. Cells infected with the virus are plated into the wells of tissue culture plates and incubated with the anti-viral drug to be tested. After incubation, MTT (3-(4,5-dimethylthiazol-2-yl)-2,5diphenyltetrazolium bromide) is added to the cell culture. Only live cells produce the blue formazan product after incubation with MTT. This product is detectable by reading the optical absorbance at 540-590 nm, so the absorbance reading gives a measure of the cells which have been protected from the virus by the anti-viral drug. Viral drug resistance results in a decrease in surviving cells and a decrease in absorbance at 540-590 nm.
(§2) The LTR was added to the nested products by PMR prior to transfection. The PMR reactions successfully added the LTR sequences to the nested products (FIG. 9). The first round RT-PCR reactions were also used as templates to generate products for RVA by cotransfection with pHXBΔCSPRTC. Triplicate PCR products were cotransfected into MT4 cells with the linearised plasmid pHXBTOPO1, in the case of the PMR products, and with linearised pHXBΔCSPRTC in for the RVA products. Viral cytopathic effect was observed and titratable virus was harvested in the supernatants. No virus was isolated from virus 2 using FPH and only one of the triplicate cultures from virus 3 yielded infectious virus. All of the RVA cultures produced virus.
(§3) In order to determine whether the extra sequences in the FPH recombinants contain determinants of susceptibility, the recombinant viruses were tested against several drugs. Drug susceptibility was determined by the 3-(4,5dimethylthiazol-2-yl)-2,5-diphenyltetrazolium bromide (MTT)-reduction calorimetric cell viability assay described previously (Pauwels et al. 1988; Robinson et al., 2000). Changes in susceptibility were defined as fold increase in IC50 relative to WT (HXB2). Nucleotide sequences were determined using ABI 3700 capillary sequencers and Big Dye terminators. […] Virus 1 also gave a 2.2-fold (Table 3A) or 4-fold (Table 3B) higher susceptibility to IDV and 2.9-fold (Table 3A) or 3.2-fold higher susceptibility to APV when generated by RVA.
Background: Tetrazolium assays rely on reduction of a dye to a coloured formazan, in cell work by metabolically active cells.

Test [2] deals with Virus 3.1, 3.2, 3.3 (recombinants by FPH or RVA). The test is described as follows: MTT-reduction cell viability drug susceptibility assay, viruses 3.1-3.3 (Table 3B). To be noted: for fold resistance: Table 3B, relative to WT. The protocol:
as §1, §2, §3

In test [3] the test system is Virus 3 (recombinant generated from plasma of Subject 3 by FPH or RVA). The test is described as follows: MTT-reduction cell viability drug susceptibility assay, recombinant Virus 3 (FPH or RVA). To be noted: for fold resistance: relative to WT (HXB2); for difference in susceptibility between the two techniques (RVA vs FPH): virus 3. The procedure:
as §1
(§4) In this experiment, plasma from three HIV-1 infected subjects experiencing virological failure on PI-containing therapy regimens was used as the basis for the FPH to generate recombinant virus. […] Virus from Subject 2 had L10I, M46I, I50V and a Lp1′F mutation at the p1/p6 protease cleavage site, all of which are mutations typical of high level APV resistance.
as §2, §3

The test system of the next test is HXB2. The test is described as follows: MTT-reduction cell viability drug susceptibility assay, wild type HXB2 (Table 3A). The note with it: for fold resistance: HXB2 wild type (reference). The procedure:
as §1, §3

The subject of test [4] is Virus 2 (recombinant generated from plasma of Subject 2 by RVA). The test is described as follows: MTT-reduction cell viability drug susceptibility assay, recombinant Virus 2 (RVA). To be noted: for EC50 / fold resistance: Table 3A, Virus 2, method RVA; for fold resistance: relative to WT (HXB2); for resistance, fold higher than wild-type: Virus 2 obtained via the RVA. The protocol: as §1, §4, §2, §3

The test system of test [5] is Virus 1 (recombinant generated from plasma of Subject 1 by FPH or RVA). The test is described as follows: MTT-reduction cell viability drug susceptibility assay, recombinant Virus 1 (FPH or RVA). The note with it: for fold resistance: relative to WT (HXB2); for fold higher susceptibility when generated by RVA than when generated by FPH: virus 1. The procedure: as §1, §4, §2, §3

Test [6] concerns WT (HXB2) generated by FPH or RVA. The test is described as follows: MTT-reduction cell viability drug susceptibility assay, WT (Table 3B). To be noted: for EC50: Human immunodeficiency virus 1, HXB2, Table 3B; for fold resistance: Table 3B. The protocol:
as §1, §3

Test [7] has as its system Virus 5.1 (FPH), 5.2 (RVA). The test can be described thus: MTT-reduction cell viability drug susceptibility assay, viruses 5.1 and 5.2 (Table 3B). The note with it: for EC50: Human immunodeficiency virus 1, Table 3B; for fold resistance: Table 3B, relative to WT. The protocol: as §1, §2, §3
The mark [8] stands for this setting: Table 3A, Virus 1, method FPH, read-out: Drug EC50.
The mark [9] stands for this setting: Table 3A, Virus 1, method RVA, read-out: Drug EC50.

Broadly, the EC50 is the concentration at which the effect is half-maximal. For the molecule `CC(C)CN(C[C@@H](O)[C@H](Cc1ccccc1)NC(=O)O[C@H]1CCOC1)S(=O)(=O)c1ccc(N)cc1` [APV, amprenavir], the concentration giving a half-maximal response (EC50) in test [1] (Virus 4.1, method RVA) is above 2500 nM; in test [1] (Virus 4.2, method RVA) it was 2010 nM; in test [1] (Virus 4.3, method RVA) it was above 2500 nM; in test [2] (Human immunodeficiency virus 1, Table 3B, Virus 3.1, method FPH, read-out: Drug EC50) it was 865 nM; in test [2] (Human immunodeficiency virus 1, Table 3B, Virus 3.2, method FPH, read-out: Drug EC50), 691 nM; in test [2] (Human immunodeficiency virus 1, Table 3B, Virus 3.2, method RVA, read-out: Drug EC50), 245 nM. Also, the EC50 in test [2] (Human immunodeficiency virus 1, Table 3B, Virus 3.3, method FPH, read-out: Drug EC50) turned out to be 619 nM; in test [2] (Human immunodeficiency virus 1, read-out: Drug EC50, Table 3B, Virus 3.1, method RVA) it was 211 nM; in test [3] (Human immunodeficiency virus 1, Table 3A, Virus 3, method FPH), 718 nM; in test [3] (Human immunodeficiency virus 1, Table 3A, Virus 3, method RVA), 396 nM; with HXB2 (Human immunodeficiency virus 1, HXB2 wild type), 67.5 nM; in test [4] (Human immunodeficiency virus 1), 1070 nM. The concentration for a half-maximal effect (EC50) stood at 128 nM in test [5] (Human immunodeficiency virus 1, Table 3A, Virus 1, method RVA, read-out: Drug EC50); 366 nM in test [5] (Human immunodeficiency virus 1, read-out: Drug EC50, Table 3A, Virus 1, method FPH); 113 nM in test [6] (method FPH); 121 nM in test [6] (method RVA); 1570 nM in test [7] (Virus 5.1, method FPH); 802 nM in test [7] (Virus 5.2, method RVA). In addition, the fold resistance result in test [1] (Virus 4.1, method RVA) is on record as “(>21) fold”; in test [1] (Virus 4.2, method RVA) it was “(17) fold”; in test [1] (Virus 4.3, method RVA), “(>21) fold”; in test [2] (Virus 3.1, method FPH) it was “(7.7) fold”; in test [2] (Virus 3.1, method RVA) it was “(1.7) fold”; in test [2] (Virus 3.2, method FPH), “(6.1) fold”. Further, the fold resistance entry in test [2] (Virus 3.2, method RVA) is recorded as “(2.0) fold”; in test [2] (Virus 3.3, method FPH), “(5.5) fold”; in test [3] (Table 3A, Virus 3, method FPH) it was “(11) fold”; in test [3] (Table 3A, Virus 3, method RVA), “(5.9) fold”; with HXB2, “(1.0) fold”; in test [4], “(16) fold”. Further, the fold resistance entry in test [5] (Table 3A, Virus 1, method FPH) is recorded as “(5.4) fold”; in test [5] (Table 3A, Virus 1, method RVA), “(1.9) fold”; in test [6] (method FPH (reference)) it was “(1.0) fold”; in test [6] (method RVA (reference)), “(1.0) fold”; in test [7] (Virus 5.1, method FPH) it was “(14) fold”; in test [7] (Virus 5.2, method RVA) it was “(6.6) fold”. Moreover, the “difference in susceptibility between the two techniques (RVA vs FPH)” value was 2.0 fold in test [3] (Table 3B experiment) and 1.9 fold in test [3] (first of the two printed values (Table 3A experiment)). Also, the “resistance, fold higher than wild-type” value in test [4] (Table 3B experiment) is reported as above 21 fold; in test [4] (first printed value (Table 3A experiment)), 16 fold. For the same molecule, the “fold higher susceptibility when generated by RVA than when generated by FPH” value in test [5] (Table 3A experiment) is listed as 2.9 fold; in test [5] (Table 3B experiment), 3.2 fold.

Take `Cc1c(O)cccc1C(=O)N[C@@H](CSc1ccccc1)[C@H](O)CN1C[C@H]2CCCC[C@H]2C[C@H]1C(=O)NC(C)(C)C` [NFV]: the EC50 in test [3] (Table 3A, Virus 3, method FPH) was determined as 591 nM; in test [3] (Table 3A, Virus 3, method RVA), 390 nM; in the test with HXB2 (HXB2 wild type) it was 29.9 nM; in test [4], 70.8 nM; in test [5] (setting [8]), 70 nM; in test [5] (setting [9]), 26.9 nM. For the same molecule, the fold resistance result is on record as “(20) fold” in test [3] (Table 3A, Virus 3, method FPH); “(13) fold” in test [3] (Table 3A, Virus 3, method RVA); “(1.0) fold” in the test with HXB2; “(2.4) fold” in test [4]; “(2.3) fold” in test [5] (Table 3A, Virus 1, method FPH); “(0.90) fold” in test [5] (Table 3A, Virus 1, method RVA).

Regarding `CC(C)c1nc(CN(C)C(=O)N[C@H](C(=O)N[C@@H](Cc2ccccc2)C[C@H](O)[C@H](Cc2ccccc2)NC(=O)OCc2cncs2)C(C)C)cs1` [RTV], the 50% effective concentration (EC50) in test [3] (Table 3A, Virus 3, method FPH) came out at 1790 nM; in test [3] (Table 3A, Virus 3, method RVA) it was 1400 nM; with HXB2 (HXB2 wild type), 65.1 nM; in test [4], 454 nM; in test [5] (setting [8]), 205 nM; in test [5] (setting [9]) it was 90.4 nM. The fold resistance entry in test [3] (Table 3A, Virus 3, method FPH) was “(27) fold”; in test [3] (Table 3A, Virus 3, method RVA) it was “(22) fold”; in the test on HXB2, “(1.0) fold”; in test [4], “(7.0) fold”; in test [5] (Table 3A, Virus 1, method FPH) it was “(3.1) fold”; in test [5] (Table 3A, Virus 1, method RVA), “(1.4) fold”.

Regarding `CC(C)(C)NC(=O)[C@@H]1C[C@@H]2CCCC[C@@H]2CN1C[C@@H](O)[C@H](Cc1ccccc1)NC(=O)[C@H](CC(N)=O)NC(=O)c1ccc2ccccc2n1` [SQV], the EC50 in test [3] (Table 3A, Virus 3, method FPH) turned out to be 16.4 nM; in test [3] (Table 3A, Virus 3, method RVA), 13.7 nM; in the test with HXB2 (HXB2 wild type) it was 13.1 nM; in test [4], 9.06 nM; in test [5] (setting [8]), 13.1 nM; in test [5] (setting [9]), 6.56 nM. The fold resistance result in test [3] (Table 3A, Virus 3, method FPH) is reported as “(1.3) fold”; in test [3] (Table 3A, Virus 3, method RVA) it was “(1.0) fold”; in the test on HXB2 it was “(1.0) fold”; in test [4], “(0.69) fold”; in test [5] (Table 3A, Virus 1, method FPH) it was “(1.0) fold”; in test [5] (Table 3A, Virus 1, method RVA) it was “(0.5) fold”.
